pIC50: −log10 of the molar value. Like-named read-outs stand apart in the source and are kept apart here.
Legend:
PANC1 cells = assay: Sphere formation assay (cancer stemness); format: cell-based; settings: Homo sapiens, PANC-1, read-out: concentration exhibiting at least 50% inhibition on the sphere forming efficiency
Protocol: A group of diterpenoid compounds of the present disclosure were tested to assess their effects on blocking formation of spheres from cancer cell lines such as PANC1, a K-Ras mutant pancreatic cell line. Briefly, PANC1 cells were harvested, re-suspended as single cell suspensions, counted and seeded into Ultra Low Attachment Culture 96-well plate (Corning, Cat #3474) at 100 cells/well in 100 μl of complete media (with 10% FBS) containing 2% Matrigel (Corning, Cat #354234) and DMSO or compounds. Six replicates per condition were seeded. The seeded cells were placed in the 37° C. tissue culture incubator. 10 μl of low serum containing media (with 0.1% FBS) was added to each well every week. Spheres formed after 3-4 weeks were counted. Sphere forming efficiency was expressed as percentage of # of spheres/# of cells seeded.

[1] = test system: phosphorylation of PKCμ, PKCδ and Erk1/2 in A549 lung cancer cells; format: cell-based; settings: 0.3 μM, 30 minutes, Western blot (FIG. 1)
Protocol: Cells were then treated with different drugs at indicated concentrations for 30 minutes. […] Imagequant LAS4000 (GE) was used to scan membranes if secondary antibodies anti-mouse IgG HRP conjugate or anti-rabbit IgG HRP conjugate (dilutions from 1:2000-1:10000) were used. For ProteinSimple Wes system, manufacture's procedure was followed (ProteinSimple 12-230 kDa Wes Separation Module) for sample preparation, loading, running, and data analysis.
Phosphorylation of these sites has been linked to acute activation or catalytic activity of the PKC isoforms and Erk1/2. High level of phosphorylation indicates strong activation.

[2] = Pharmacokinetic study, intravenous bolus injection in rats; format: in vivo; settings: Sprague Dawley; for concentration at 0.0167 hour / concentration at 0.0833 hour / concentration at 0.25 hour / concentration at 0.5 hour / concentration at 1 hour / concentration at 2 hour / concentration at 4 hour / concentration at 7 hour / concentration at 24 hour / Vd: plasma, rat; for concentration at 0.0167 hour: 0.0167 hour post dose; for concentration at 0.0167 hour / concentration at 0.0833 hour / concentration at 0.25 hour / concentration at 0.5 hour / concentration at 1 hour / concentration at 2 hour / concentration at 4 hour / concentration at 7 hour / concentration at 24 hour: read-out: Concentration in Rat Plasma after Bolus Injection, Mean; for concentration at 0.0833 hour: 0.0833 hour post dose; for concentration at 0.25 hour: 0.25 hour post dose; for concentration at 0.5 hour: 0.5 hour post dose; for concentration at 1 hour: 1 hour post dose; for concentration at 2 hour: 2 hour post dose; for concentration at 4 hour: 4 hour post dose; for concentration at 7 hour: 7 hour post dose; for concentration at 24 hour: 24 hour post dose; for AUC(0-t) / C0 / MRT inf / clearance / half-life / Vd: rat plasma; for Vd: iv
Protocol: Pharmacokinetic (PK) studies were conducted for compounds described in this disclosure, and the PK study of K101-C1327 administered by intravenous injection in rats is given as an example. Briefly, K101-C1327 was dissolved in a pH 5 buffer solution at the concentrations of 2.0 mg/mL, and diluted to 0.04 and 0.08 mg/mL to achieve the doses of 0.1 and 0.2 mg/kg with a dosing volume of 2.5 mL/kg, respectively. The K101-C1327 dosing solutions were administered via intravenous bolus injection in 3 rats (Sprague Dawley). Plasma samples were taken at 1 minute, 5 minutes, 15 minutes, 30 minutes, 1 hour, 2 hours, 4 hours, 7 hours, and 24 hours. The drug concentrations at each time point were determined by LC-MS. The results of drug concentrations and pharmacokinetic parameters are presented in the Table 6 and Table 7, respectively, below.

## CC1=C[C@H]2[C@@]3(O)[C@H](C)C[C@]4(OC(=O)[C@@H](N)CCCCCCc5ccccc5)[C@H]([C@@H]3C=C(CO)C[C@]2(O)C1=O)C4(C)C [Compound K101-C134802]
PANC1 cells
  pIC50: ≥ 7.30

## CC1=C[C@H]2[C@@]3(O)[C@H](C)C[C@]4(OC(=O)[C@H](N)CCCCCCc5ccccc5)[C@H]([C@@H]3C=C(CO)C[C@]2(O)C1=O)C4(C)C [Compound K101-C134801]
PANC1 cells
  pIC50: ≥ 6.82

## CC1=C[C@H]2[C@@]3(O)[C@H](C)C[C@]4(OC(=O)[C@@H](N)CC5CCCCC5)[C@H]([C@@H]3C=C(CO)C[C@]2(O)C1=O)C4(C)C [Compound K101-C1327]
[1]
  phosphorylation of PKC (PKD/PKCμ), PKCδ and Erk1/2: induced high levels of phosphorylation
[2]; dose 0.1 mg/kg
  concentration at 0.0167 hour: 216 ng/mL
  concentration at 0.0833 hour: 49.2 ng/mL
  concentration at 0.25 hour: 28.7 ng/mL
  concentration at 0.5 hour: 19.4 ng/mL
  concentration at 1 hour: 14.6 ng/mL
  concentration at 2 hour: 5 ng/mL
  concentration at 4 hour: 1 ng/mL
  concentration at 7 hour: < 1 ng/mL
  concentration at 24 hour: < 1 ng/mL
[2]; dose 0.2 mg/kg
  concentration at 0.0167 hour: 334 ng/mL
  concentration at 0.0833 hour: 102 ng/mL
  concentration at 0.25 hour: 65 ng/mL
  concentration at 0.5 hour: 43.6 ng/mL
  concentration at 1 hour: 37.6 ng/mL
  concentration at 2 hour: 29.1 ng/mL
  concentration at 4 hour: 6 ng/mL
  concentration at 7 hour: < 1 ng/mL
  concentration at 24 hour: < 1 ng/mL
[2]; 0.1 mg/kg
  AUC(0-t): 48.3 ng·h/mL
  C0: 314 ng/mL
  MRT inf: 0.873 h
  clearance: 32.9 mL/min/kg
  half-life: 0.857 h
[2]; 0.2 mg/kg
  AUC(0-t): 119 ng·h/mL
  C0: 450 ng/mL
  MRT inf: 2.93 h
  clearance: 21.5 mL/min/kg
  half-life: 2.29 h
[2]; 0.1 mg/kg, 0.1 mg/kg, read-out: Vss
  Vd: 1.73 L/kg
[2]; 0.1 mg/kg, 0.1 mg/kg, read-out: Vz
  Vd: 2.44 L/kg
[2]; 0.2 mg/kg, 0.2 mg/kg, read-out: Vss
  Vd: 2.77 L/kg
[2]; 0.2 mg/kg, 0.2 mg/kg, read-out: Vz
  Vd: 3.25 L/kg

## CC1=C[C@H]2[C@@]3(O)[C@H](C)C[C@]4(OC(=O)[C@@H](N)[C@]56C[C@H]7C[C@H](C[C@H](C7)C5)C6)[C@H]([C@@H]3C=C(CO)C[C@]2(O)C1=O)C4(C)C [Compound K101-C1347]
PANC1 cells
  pIC50: ≥ 7.30

— patent publication US20220411362A1, “DITERPENOID COMPOUNDS THAT ACT ON PROTEIN KINASE C (PKC)” (K-Gen, Inc., priority 2019, published 2022)
